Experimental data taken from patent publication US5679787A, “Process for isomerization of compound of aldose structure into compound of ketose structure, and isomerization agent or accelerator used therein” (priority 1992, dated 1997).

Legend:
[1] = Toxicity, LD50 on oral administration to rats; conditions: rat, in vivo, orally administered to rats
Description: (§1) The organogermanium compound used in the present invention has very low toxicity.

[2] = Isomerization without enzyme (Example 3), ribose; conditions: NaOH; remark (2): reaction time 6 h, initial pH 10.0-10.6; blank 3.9-19.5%
[3] = Isomerization test at pH 10 (Example 4), xylose; conditions: pH 10 with aqueous sodium hydroxide, 80° C., 3 hours; blank 5.59
Procedure: (§2) The same isomerization test as in Example 2 was conducted with slight modifications.
(§3) That is, 200 μl of one of various saccharide solutions and 200 μl of one of various organogermanium compound solutions were placed in a small test tube. The mixture was adjusted to pH 10 with an aqueous sodium hydroxide solution, after which the tube was placed in a water bath of 80° C. for a reaction. 3 hours later, the reaction was terminated and the amount of each saccharide isomerized was determined by high-performance liquid chromatography using 7A (a column) manufactured by Shimadzu Corp.

[4] = Toxicity, LD50 on oral administration to mice; conditions: mouse, in vivo, orally administered to mice
Description: as §1

[5] = Isomerization without enzyme (Example 3), lactose; conditions: remark (3): reaction time 6 h, initial pH 10.0-11.0
[6] = Isomerization test at pH 10 (Example 4), arabinose; conditions: pH 10 with aqueous sodium hydroxide, 80° C., 3 hours; blank 2.75
Procedure: as §2, §3

[7] = Isomerization test at pH 10 (Example 4), mannose; conditions: pH 10 with aqueous sodium hydroxide, 80° C., 3 hours; blank 12.48
Procedure: as §2, §3

[8] = Isomerization without enzyme (Example 3), maltose; conditions: remark (3): reaction time 6 h, initial pH 10.0-11.0
[9] = Isomerization without enzyme (Example 3), mannose; conditions: remark (2): reaction time 6 h, initial pH 10.0-10.6
glucose isomerase = test: Enzymatic isomerization of glucose into fructose in presence of organogermanium compound (Example 1); type: biochemical, Streptomyces griseofuscus S-41; conditions: 60° C., pH 8.0, substrate solution 40% glucose and 1.2M organogermanium compound, blank 50%
Procedure: A solution containing 40% glucose and 1.2M organogermanium compound was prepared according to the following procedure. 0.8 g of anhydrous glucose was dissolved in 0.8 ml of deionized water. To the solution was added, in small portions, 0.407 g of the organogermanium compound (1) as an isomerization accelerator of the present invention [a compound represented by formula (II) wherein n=1, R1 =R2 =R3 and X1 =OH] while the pH of the solution was maintained at very weak alkalinity, to completely dissolve the compound in the solution. Thereto was added 4.9 mg of magnesium sulfate, and the pH of the resulting mixture was adjusted to 8.0. Then, deionized water was added to make the total volume 2.0 ml, whereby a substrate solution was prepared.
Two other substrate solutions containing the organogermanium compounds (18) [a compound represented by formula (II) wherein n=1, R1 =R2 =H, R3 =NH2 and X1 =OH] and (23) [a compound represented by formula (II) wherein n=1, R1 =H, R2 =C6 H5, R3 =NH2 and X1 =OH], respectively, were prepared in the same manner as above except that the organogermanium compounds (18) and (23) were used in amounts of 0.443 g and 0.638 g, respectively (these amounts corresponded to 1.2M of germanium).
An isomerization enzyme (glucose isomerase) extracted from the cells of Streptomyces griseofuscus S-41 was purified according to a known method using an ion exchange column, a gel filtration column or the like, until a single band was obtained electrophoretically. The resulting purified enzyme was used as a standard enzyme.
In a small test tube were placed 0.7 ml of the above substrate solution, 0.1 ml of a 200 mM MOPS buffer solution (pH 8.0) and 0.2 ml of a solution containing the above-prepared standard enzyme (5.69 mg/ml). […] The amount of formed fructose in the microvial was determined by high-performance liquid chromatography using a column [LC7A, SCR-101 (N) manufactured by Shimadzu Corp.] to examine the change with time, of ratio of isomerization of glucose into fructose.

[10] = Isomerization test at pH 10 (Example 4), ribose; conditions: pH 10 with aqueous sodium hydroxide, 80° C., 3 hours; blank 2.89
Procedure: as §2, §3

[11] = Isomerization without enzyme (Example 3), arabinose; conditions: remark (2):, initial pH 10.0-10.6
[12] = Isomerization test at pH 10 (Example 4), galactose; conditions: pH 10 with aqueous sodium hydroxide, 80° C., 3 hours; blank 7.60
Procedure: as §2, §3

[13] = Isomerization test at pH 10 (Example 4), maltose; conditions: pH 10 with aqueous sodium hydroxide, 80° C., 3 hours; blank 12.59
Procedure: as §2, §3

[14] = Isomerization without enzyme (Example 3), glucose; conditions: remark (1): initial pH 8.0-8.53
Procedure: 200 μl of the 14% or 28% glucose solution and 200 μl of the organogermanium compound solution (pH 8.00 or 8.53) were placed in a small test tube. Also, 200 μl of the 14% or 28% glucose solution and 200 μl of the weakly alkaline electrolytic water were placed in a small test tube. Each test tube was thoroughly shaken and then placed in a water bath of 80° C. to give rise to a reaction. […] Thereafter, the mixture was diluted 100-fold with deionized water to determine the amount of formed fructose and the amount of residual glucose by high-performance liquid chromatography using 7A (a column) manufactured by Shimadzu Corp. […]

[15] = Isomerization without enzyme (Example 3), xylose; conditions: remark (2): reaction time 6 h, initial pH 10.0-10.6
Procedure: [The procedure below names another target; the source says it served here with some conditions changed.] 200 μl of the 14% or 28% glucose solution and 200 μl of the organogermanium compound solution (pH 8.00 or 8.53) were placed in a small test tube. Also, 200 μl of the 14% or 28% glucose solution and 200 μl of the weakly alkaline electrolytic water were placed in a small test tube. Each test tube was thoroughly shaken and then placed in a water bath of 80° C. to give rise to a reaction. 1-3 hours later, 50 μl of the reaction mixture was added to 50 μl of 0.5N HClO4 to terminate the reaction. Thereafter, the mixture was diluted 100-fold with deionized water to determine the amount of formed fructose and the amount of residual glucose by high-performance liquid chromatography using 7A (a column) manufactured by Shimadzu Corp.
Other compounds represented by formula (I) were subjected to 3-hour isomerization in the same manner as in Example 2.

[16] = electrolytic water, blank 0-0.4%
[17] = electrolytic water, blank 0.4-1.2%

For O=C(O)C[CH2][Ge](=[O])[O][Ge](=[O])[CH2]CC(=O)O [Compound 1], the LD50 [1] was at least 10000 mg/kg, the “Isomerization ratio Ribose NaOH” value [2] was 44.7% and the “Isomerization (%) Xylose” value [3] was 40.66%. The LD50 [4] was at least 6000 mg/kg, the “Isomerization ratio Lactose NaOH” value ([5]; NaOH, blank 34.0-38.6%) was 70.3% and the “Isomerization ratio Lactose Electrolytic water” value [5, 16] was 58.3%. The “Isomerization (%) Arabinose” value [6] was 20.87%, the “Isomerization (%) Mannose” value [7] was 37.23% and the “Isomerization ratio Maltose NaOH” value ([8]; NaOH, blank 34.0-38.6%) was 68.7%. The “Isomerization ratio Maltose Electrolytic water” value [8, 16] was 43.2%, the “Isomerization ratio Mannose NaOH” value ([9]; NaOH, blank 3.9-19.5%) was 24.3% and the “Isomerization ratio Mannose Electrolytic water” value [9, 17] was 13.1%. For the same molecule, the “isomerization ratio in equilibrium” value (glucose isomerase) was 75%, the “Isomerization (%) Ribose” value [10] was 27.76% and the “Isomerization ratio Arabinose NaOH” value ([11]; NaOH, blank 3.9-19.5%) was 22.6%. The “Isomerization ratio Arabinose Electrolytic water” value [11, 17] was 12.6%, the “Isomerization (%) Galactose” value [12] was 38.67% and the “Isomerization (%) Maltose” value [13] was 78.91%. The “Isomerization ratio Glucose NaOH” value ([14]; NaOH, blank 32.3%) was 98.9%, the “Isomerization ratio Glucose Electrolytic water” value ([14]; electrolytic water, blank 2.1-3.1%) was 94.7% and the “Isomerization ratio Xylose NaOH” value ([15]; NaOH, blank 3.9-19.5%) was 30.3%. The “Isomerization ratio Xylose Electrolytic water” value [15, 17] was 19.6%.
